The target in experiment [1] is T1, Neutrophil elastase (Homo sapiens) (UniProt P08246).
T1 sequence (whole entry): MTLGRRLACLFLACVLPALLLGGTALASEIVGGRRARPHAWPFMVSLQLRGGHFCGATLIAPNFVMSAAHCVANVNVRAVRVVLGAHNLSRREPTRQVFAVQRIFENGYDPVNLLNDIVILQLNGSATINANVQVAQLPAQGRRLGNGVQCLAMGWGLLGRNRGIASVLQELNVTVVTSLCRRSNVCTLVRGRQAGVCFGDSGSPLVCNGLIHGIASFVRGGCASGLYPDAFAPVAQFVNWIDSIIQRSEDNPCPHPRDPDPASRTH
Briefly: Compound was tested for the inhibition of human leukocyte elastase (HLE) by ratio of Kobs to that of KI; Insoluble.

Experiment [2] concerns the target T1, Neutrophil elastase (Homo sapiens). The experiment can be described thus: Compound was tested for the inhibition of human leukocyte elastase (HLE) by ratio of Kobs to that of KI.
In another experiment the target is T2, Neutrophil elastase (Homo sapiens, UniProt P08246).
T2 sequence (P08246 whole entry): T1 sequence (whole entry)
The experiment can be described thus: Compound was tested for the inhibition of human leukocyte elastase (HLE).

The results in this text go back to ChEMBL document CHEMBL1126225, “Potential mechanism-based inhibitors of proteolytic enzymes” (Bioorg Med Chem Lett, 1992).

For `CC(C)C[C@H](NC(=O)OCc1ccccc1)C(=O)CN1C(=O)c2ccccc2C1=O`, the “K obs / 1” value in experiment [1] is “Insoluble”.

On to `O=C(CN1C(=O)c2ccccc2S1(=O)=O)OCc1ccccc1`, for which the K obs / 1 in experiment [2] stood at 4 M⁻¹ s⁻¹.

As for `CC(C)C[C@H](NC(=O)OCc1ccccc1)C(=O)CN1C(=O)CC(Cc2ccccc2)C1=O` (stereo partly drawn), the K obs / 1 in experiment [2] worked out at 3 M⁻¹ s⁻¹.

In the case of `CC(C)C[C@H](NC(=O)OCc1ccccc1)C(=O)CN1C(=O)c2ccccc2S1(=O)=O`, the K obs / 1 in experiment [2] is 420 M⁻¹ s⁻¹.

`CC(C)Cc1ccc(C(C)C(=O)CN2C(=O)CC(CC(C)C)C2=O)cc1` (stereo not drawn): the K obs / 1 in experiment [2] turned out to be 16 M⁻¹ s⁻¹.

For the molecule `CC(C)Cc1ccc(C(C)C(=O)CN2C(=O)CC(Cc3ccccc3)C2=O)cc1` (stereo not drawn), in experiment [2], the K obs / 1 was 45 M⁻¹ s⁻¹.

`CC(C)Cc1ccc(C(C)C(=O)CN2C(=O)c3ccccc3S2(=O)=O)cc1` (stereo not drawn): the K obs / 1 in experiment [2] was 160 M⁻¹ s⁻¹.

For `CC(C)C[C@H](N)C(=O)CN1C(=O)c2ccccc2C1=O`, the Ki (commonly a dissociation constant, usually derived from enzyme kinetics or from competition with a known ligand) on Neutrophil elastase was determined as 17.5 µM.
